Source: patent publication US6716842B2, “Antidiabetic agents” (Warner-Lambert Company, LLC, priority 2002, dated 2004)
Like-named read-outs stand apart in the source and are kept apart here.

System: PPAR-γ (promoter/enhancer of the murine aP2 gene in 3T3-L1 cells)
Assay: 3T3-L1 transient reporter assay (AD3T3L1)
Format: cell-based
Conditions: for % Max BRL: maximal effect relative to reference BRL 49653
Protocol: TEST E—3T3-L1 TRANSIENT REPORTER ASSAY
This assay is used to determine the potential of putative PPAR-γ ligands to activate the promoter/enhancer of the murine aP2 gene. 3T3-L1 preadipocytes are cultured on collagen coated plates in DMEM containing 10% Calf serum for 48 hours post-confluence. The cells are then cultured for approximately 3 days in DMEM containing 10% Fetal Bovine Serum (FBS), 0.5-mM methyl isobutylxanthine, 0.25 μM dexamethasone, and 1 μg/ml of insulin. Cells are detached from the plates with Trypsin-EDTA and resuspended in Phosphate Buffered Saline (PBS).
The reporter construct used in this assay is comprised of the −5.4 Kb 5′ flanking region of the murine aP2 gene inserted into the cloning site of the TKpGL3 luciferase vector. Transfection efficiency is controlled by co-transfection of the reference plasmid CMV-β-galactosidase. The reporter construct and the reference plasmid are transiently co-transfected into the cells by electroporation. The transfected cells are plated into collagen coated 96-well plates and cultured overnight. Cells are then incubated for 48 hours with the test compounds and then harvested. The lysates are measured for luciferase and β-galactosidase activities using the Dual-Light® luciferase kit from Tropix on a EG&G Berthold MicroLumat LB96P luminometer.

| Molecule | EC50 (Mus musculus) [µM] | % Max BRL [%] | EC50 [µM] |
| --- | --- | --- | --- |
| Cc1oc(-c2ccccc2)nc1CCOc1ccc(CCC(=O)O)c(O)c1 [3-[4-[2-(5-Methyl-2-phenyl-oxazol-4-yl)-ethoxy]-2-(hydroxy)-phenyl]-propionic acid] | 3.4 | 70 |  |
| Cc1oc(-c2ccccc2)nc1CCOc1ccc(CCC(=O)O)c(OCc2ccccn2)c1 [3-[4-[2-(5-Methyl-2-phenyl-oxazol-4-yl)-ethoxy]-2-(pyridin-2-ylmethoxy)-phenyl]-propionic acid] | 0.103 | 108 |  |
| 3-{2-Hydroxy-4-[2-(5-methyl-2-phenyl-oxazol-4-yl)-ethoxy]-phenyl}-propionic acid ethyl ester |  | 74 | 5.9 |
